One data set relates to Factor IX. Kind of data set: Factor IX mRNA transfected in serum-free media, peptide detection by MALDI. The class given is cell-based, human. The settings on record: 8 peptides detected, 7 unique to Factor IX. The source says:
The cell culture supernatant was collected and subjected to trypsin digestion before undergoing 2-dimensional HPLC separation of the peptides Matrix-assisted laser desorption/ionization was used to detect the peptides. 8 peptides were detected and 7 of the detected peptides are unique to Factor IX.

Data set [1] is described as follows: In vivo study of Factor IX mmRNA IM, serum Factor IX. The settings on record: mice IM, 2×100 ug/mouse in formulation buffer, 13 hours. As for the experimental part: Human Factor IX mmRNA (Gen1; fully modified 5-methylcytosine and pseudouridine) formulated in formulation buffer was delivered to mice via intramuscular injection.
The mice were bled at 13 hours after the intramuscular injection to determine the concentration of human the polypeptide in serum in pg/mL.

The conditions of data set [2]: for Serum Concentration 8-12 hours after administration: Factor IX; for Factor IX Protein Expression, Conc: mice IV, serum 8 hrs.
Data set [3] in a line: Intramuscular and subcutaneous delivery of human EPO mRNA in buffer, serum human EPO. In kind it is in vivo, C57/BL6 mice. The settings on record: mice, 100 μg, 13 hours. The method, then:
(§1) Mice were intramuscularly or subcutaneously injected with 50 μl of the modified human EPO mRNA (h-EPO), modified luciferase mRNA (Luc) or the formulation buffer (F.Buffer) as described in the dosing chart Table 58. 13 hours post injection blood was collected and serum was analyzed to determine the amount human EPO for each mouse or rat.

Data set [4] in a line: Intramuscular delivery of human EPO mRNA in buffer, serum human EPO. The class given is in vivo, Sprague-Dawley rats. The settings on record: rats, 100 μg, 13 hours. As for the experimental part: as §1
A short description of data set [5]: Duration of activity after intramuscular delivery, serum human EPO. In kind it is in vivo, Sprague-Dawley rats. The settings on record: rats, 100 μg, 24, 48 and 72 hour. As for the experimental part:
The rats were bled 2, 6, 12, 24, 48 and 72 hours after the intramuscular injection to determine the concentration of human EPO in serum at a given time.

The nature of data set [6]: Human G-CSF modified RNA lipoplex comparison I.M., S.C., G-CSF ELISA 13 hours. In kind it is in vivo, C57/BL6 mice. The settings on record: mice I.M. or S.C., 100 μg, saline or lipoplex. The method, then:
A formulation containing 100 μg of either modified human G-CSF mRNA lipoplexed with 30% by volume of RNAIMAX™ with a 5-methylcytosine (5mc) and a pseudouridine (ψ) modification (G-CSF-Gen1-Lipoplex), modified human G-CSF mRNA with a 5mc and ψ modification in saline (G-CSF-Gen1-Saline), modified human G-CSF mRNA with a N1-5-methylcytosine (N1-5mc) and a ψ modification lipoplexed with 30% by volume of RNAIMAX™ (G-CSF-Gen2-Lipoplex), modified human G-CSF mRNA with a N1-5mc and ψ modification in saline (G-CSF-Gen2-Saline), modified luciferase with a 5mc and ψ modification lipoplexed with 30% by volume of RNAIMAX™ (Luc-Lipoplex), or modified luciferase mRNA with a 5mc and ψ modification in saline (Luc-Saline) was delivered intramuscularly (I.M.) or subcutaneously (S.C.) and a control group for each method of administration was giving a dose of 80 uL of the formulation buffer (F. Buffer) to C57/BL6 mice. 13 hours post injection serum and tissue from the site of injection were collected from each mouse and analyzed by G-CSF ELISA to compare human G-CSF protein levels. The results of the human G-CSF protein in mouse serum from the intramuscular administration and the subcutaneous administration results are shown in Table 55.

The subject of another data set is IFN-alpha. As to the kind of experiment: Cytokine study PBMC, IFN-alpha production ELISA. In kind it is cell-based. The settings on record: human PBMC, Lipofectamine 2000. As for the experimental part:
The plates were then incubated at 37 C.
Each condition was done in duplicate
Shown in Tables 69 and 70 are the average from 2 separate PBMC donors of the G-CSF and IFN-alpha production over time as measured by specific ELISA.
For orientation: In an ELISA, binding on a coated surface is turned into a signal by an enzyme label.

Data set [7] concerns peripheral blood mononuclear cells (PBMC). As to the kind of experiment: In vitro PBMC study, percent modification: IFN-alpha and TNF-alpha by ELISA, PC ratio. In kind it is cell-based, human. The method, then:
The supernatant was harvested and run by ELISA 22 hours after transfection to determine the protein expression.

Data set [8] has the same test system. The class given is cell-based, human. The method, then:
(§2) 500 ng of G-CSF mRNA modified with 5-methylcytosine (5mC) and pseudouridine (pseudoU) or unmodified G-CSF mRNA was transfected with 0.4 uL of Lipofectamine 2000 into peripheral blood mononuclear cells (PBMC) from three normal blood donors (D1, D2, and D3). […] The supernatant was harvested 6 hours and 18 hours after transfection and run by ELISA to determine the protein expression. The expression of G-CSF, IFN-alpha, and TNF-alpha for Donor 1 is shown in Table 86, Donor 2 is shown in Table 87 and Donor 3 is shown in Table 88.

Data set [9] shares this test system. Kind of data set: Modified RNA transfected in PBMC: G-CSF by ELISA at 6 and 18 hours. In kind it is cell-based, human. The settings on record: Donor 2, 18 hours. As for the experimental part: as §2
In a further data set the test system is neutrophil count. Kind of data set: Intravenous administration of lipoplexed G-CSF mRNA, neutrophil count. The class given is in vivo. The settings on record: mice IV, 50 ug RNA in 10% lipoplex at days 0, 2 and 4; day 5. As for the experimental part:
Neutrophils were measured at days 1, 5 and 8. Controls included non-specific mammalian RNA or the formulation buffer alone (F.Buffer). The mice were bled at days 1, 5 and 8 to determine the effect of mRNA-encoded human G-CSF to increase neutrophil count. The dosing regimen is shown in Table 64 as are the resulting neutrophil counts (thousands/uL; K/uL).

Where two headings read alike, the source gives them in different places.

Here are results for six molecules from patent US20200164038A1, “MODIFIED NUCLEOSIDE, NUCLEOTIDE, AND NUCLEIC ACID COMPOSITIONS” (ModernaTX, Inc., priority 2011, published 2020).

In the case of “Factor IX Gen 1: Factor IX mRNA SEQ ID NO 10, Cap1, fully modified with 5-methylcytosine and pseudouridine”, the “expression of Factor IX protein” value in the data set on Factor IX was “able to express full-length Factor IX protein”.

Turning to “Factor IX: human Factor IX mRNA, SEQ ID NO: 10, polyA about 160 nt, Cap1, fully modified with 5-methylcytosine and pseudouridine”, the “concentration of Factor IX in serum” value in data set [1] amounted to 1600 pg/mL. Further, the “Serum Concentration 8-12 hours after administration” value in data set [2] (IM, 2 × 100 ug) was around 1.6 ng/mL; in data set [2] (IV (LNP), 1 ug), around 40 ng/mL; in data set [2] (IV (LNP), 10 ug), around 400 ng/mL; in data set [2] (IV (LNP), 100 ug), ~3,000-10,000 ng/ml. Further, the “Factor IX Protein Expression, Conc” value in data set [2] (LNP NPA-029-1, 10 ug) is around 380 ng/mL; in data set [2] (LNP NPA-029-1, 100 ug), 3000 to 11000 ng/mL.

Luc: the “human EPO Average Level in serum” value in data set [3] (IM) came to 0 pg/mL; in data set [3] (SC), 26.7 pg/mL. The “human EPO in serum, Avg.” value in data set [4] turned out to be 24.5 pg/mL; in data set [5] it was 37.2 pg/mL. Also, the “human EPO in serum, Geometric-mean” value in [4] turned out to be 22.4 pg/mL; in [5] it was 29.2 pg/mL.

B1: Gen2 G-CSF mmRNA: human G-CSF mRNA, SEQ ID NO: 6, modified with 5-methylcytidine and N1-methylpseudouridine (nucleic acid, listed as Homo sapiens)
chain: GGGAAAUAAGAGAGAAAAGAAGAGUAAGAAGAAAUAUAAGAGCCACCAUGGCCGGUCCCGCGACCCAAAGCCCCAUGAAACUUAUGGCCCUGCAGUUGCUGCUUUGGCACUCGGCCCUCUGGACAGUCCAAGAAGCGACUCCUCUCGGACCUGCCUCAUCGUUGCCGCAGUCAUUCCUUUUGAAGUGUCUGGAGCAGGUGCGAAAGAUUCAGGGCGAUGGAGCCGCACUCCAAGAGAAGCUCUGCGCGACAUACAAACUUUGCCAUCCCGAGGAGCUCGUACUGCUCGGGCACAGCUUGGGGAUUCCCUGGGCUCCUCUCUCGUCCUGUCCGUCGCAGGCUUUGCAGUUGGCAGGGUGCCUUUCCCAGCUCCACUCCGGUUUGUUCUUGUAUCAGGGACUGCUGCAAGCCCUUGAGGGAAUCUCGCCAGAAUUGGGCCCGACGCUGGACACGUUGCAGCUCGACGUGGCGGAUUUCGCAACAACCAUCUGGCAGCAGAUGGAGGAACUGGGGAUGGCACCCGCGCUGCAGCCCACGCAGGGGGCAAUGCCGGCCUUUGCGUCCGCGUUUCAGCGCAGGGCGGGUGGAGUCCUCGUAGCGAGCCACCUUCAAUCAUUUUUGGAAGUCUCGUACCGGGUGCUGAGACAUCUUGCGCAGCCGUGAAGCGCUGCCUUCUGCGGGGCUUGCCUUCUGGCCAUGCCCUUCUUCUCUCCCUUGCACCUGUACCUCUUGGUCUUUGAAUAAAGCCUGAGUAGGAAG
modifications: 5-methylcytidine and N1-methylpseudouridine modified
Consider B1, for which the “human G-CSF protein production relative to 5-methylcytosine/pseudouridine modified human G-CSF mRNA” value in data set [6] was “increased human G-CSF protein production”. For the same molecule, the “innate immune recognition, cytokines (IFN-alpha)” value with IFN-alpha is listed as “did not significantly increase cytokines”.

B2: 100% modification: G-CSF mRNA (SEQ ID NO 6, Cap1) completely modified with 5mC and pseudoU (nucleic acid, listed as Homo sapiens)
chain: GGGAAAUAAGAGAGAAAAGAAGAGUAAGAAGAAAUAUAAGAGCCACCAUGGCCGGUCCCGCGACCCAAAGCCCCAUGAAACUUAUGGCCCUGCAGUUGCUGCUUUGGCACUCGGCCCUCUGGACAGUCCAAGAAGCGACUCCUCUCGGACCUGCCUCAUCGUUGCCGCAGUCAUUCCUUUUGAAGUGUCUGGAGCAGGUGCGAAAGAUUCAGGGCGAUGGAGCCGCACUCCAAGAGAAGCUCUGCGCGACAUACAAACUUUGCCAUCCCGAGGAGCUCGUACUGCUCGGGCACAGCUUGGGGAUUCCCUGGGCUCCUCUCUCGUCCUGUCCGUCGCAGGCUUUGCAGUUGGCAGGGUGCCUUUCCCAGCUCCACUCCGGUUUGUUCUUGUAUCAGGGACUGCUGCAAGCCCUUGAGGGAAUCUCGCCAGAAUUGGGCCCGACGCUGGACACGUUGCAGCUCGACGUGGCGGAUUUCGCAACAACCAUCUGGCAGCAGAUGGAGGAACUGGGGAUGGCACCCGCGCUGCAGCCCACGCAGGGGGCAAUGCCGGCCUUUGCGUCCGCGUUUCAGCGCAGGGCGGGUGGAGUCCUCGUAGCGAGCCACCUUCAAUCAUUUUUGGAAGUCUCGUACCGGGUGCUGAGACAUCUUGCGCAGCCGUGAAGCGCUGCCUUCUGCGGGGCUUGCCUUCUGGCCAUGCCCUUCUUCUCUCCCUUGCACCUGUACCUCUUGGUCUUUGAAUAAAGCCUGAGUAGGAAG
modifications: Cap1; 5-methylcytidine, pseudouridine
Consider B2, for which, in data set [7], the “TNF-alpha Expression” value amounted to 11.1 pg/mL; the “better ratio of protein/cytokine production than natural G-CSF mRNA, IFN-alpha” value came out at 100 fold; the “better ratio of protein/cytokine production than natural G-CSF mRNA, TNF-alpha” value was 27 fold. Besides, the IFN-alpha in [8] worked out at 1 pg/mL. Moreover, the G-CSF in [9] worked out at 432 pg/mL.

B3: Unmodified G-CSF mRNA: human G-CSF mRNA, SEQ ID NO: 6, having no modifications (natural NTPs) (nucleic acid, listed as Homo sapiens)
chain: GGGAAAUAAGAGAGAAAAGAAGAGUAAGAAGAAAUAUAAGAGCCACCAUGGCCGGUCCCGCGACCCAAAGCCCCAUGAAACUUAUGGCCCUGCAGUUGCUGCUUUGGCACUCGGCCCUCUGGACAGUCCAAGAAGCGACUCCUCUCGGACCUGCCUCAUCGUUGCCGCAGUCAUUCCUUUUGAAGUGUCUGGAGCAGGUGCGAAAGAUUCAGGGCGAUGGAGCCGCACUCCAAGAGAAGCUCUGCGCGACAUACAAACUUUGCCAUCCCGAGGAGCUCGUACUGCUCGGGCACAGCUUGGGGAUUCCCUGGGCUCCUCUCUCGUCCUGUCCGUCGCAGGCUUUGCAGUUGGCAGGGUGCCUUUCCCAGCUCCACUCCGGUUUGUUCUUGUAUCAGGGACUGCUGCAAGCCCUUGAGGGAAUCUCGCCAGAAUUGGGCCCGACGCUGGACACGUUGCAGCUCGACGUGGCGGAUUUCGCAACAACCAUCUGGCAGCAGAUGGAGGAACUGGGGAUGGCACCCGCGCUGCAGCCCACGCAGGGGGCAAUGCCGGCCUUUGCGUCCGCGUUUCAGCGCAGGGCGGGUGGAGUCCUCGUAGCGAGCCACCUUCAAUCAUUUUUGGAAGUCUCGUACCGGGUGCUGAGACAUCUUGCGCAGCCGUGAAGCGCUGCCUUCUGCGGGGCUUGCCUUCUGGCCAUGCCCUUCUUCUCUCCCUUGCACCUGUACCUCUUGGUCUUUGAAUAAAGCCUGAGUAGGAAG
With B3, in the data set on neutrophil count, the “increase in neutrophil count above control” value was “no pharmacologic effect on neutrophil counts”.
